Assay results published in the supplement of paper PMC10307832.

Experiments:
Assay in all cases: relative viability (nuclei count vs DMSO), 5 days (fraction); higher = more cells survive
Quizartinib + Luminespib = compound: CC(C)(C)c1cc(NC(=O)Nc2ccc(-c3cn4c(n3)sc3cc(OCCN5CCOCC5)ccc34)cc2)no1 [Quizartinib] + CCNC(=O)c1noc(-c2cc(C(C)C)c(O)cc2O)c1-c1ccc(CN2CCOCC2)cc1 [Luminespib] (partner 0.01 µM)
Summary of the method: (§1)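 The day after seeding in 1536-well plates, lung cancer cell lines were treated by pin tool with a single drug, or with a fixed anchor-drug dose together with five library-drug doses (not always all listed) in √10 steps. After 5 days, a combined fix-and-stain solution (final 0.05% Triton X-100, 1% formaldehyde, 1 ug/ml Hoechst) was added. Nuclei counted on 4× images gave relative viability as treated counts over vehicle counts, reported as the median of duplicate plates.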

Quizartinib + Pictilisib = compound: CC(C)(C)c1cc(NC(=O)Nc2ccc(-c3cn4c(n3)sc3cc(OCCN5CCOCC5)ccc34)cc2)no1 [Quizartinib] + CS(=O)(=O)N1CCN(Cc2cc3nc(-c4cccc5[nH]ncc45)nc(N4CCOCC4)c3s2)CC1 [Pictilisib] (partner 1 µM)
Summary of the method: as §1

YM155 + OSI-027 = compound: COCC[n+]1c2c(n(Cc3cnccn3)c1C)C(=O)c1ccccc1C2=O [YM155] + COc1cccc2cc(-c3nc([C@H]4CC[C@H](C(=O)O)CC4)n4ncnc(N)c34)[nH]c12 [OSI-027] (partner 0.5 µM)
Summary of the method: as §1

YM155 + AZD7762 = compound: COCC[n+]1c2c(n(Cc3cnccn3)c1C)C(=O)c1ccccc1C2=O [YM155] + NC(=O)Nc1cc(-c2cccc(F)c2)sc1C(=O)N[C@H]1CCCNC1 [AZD7762] (partner 0.2 µM)
Summary of the method: as §1

Row | Cell Line | relative viability (Quizartinib + Luminespib; first compound 0.001 µM) | relative viability (Quizartinib + Luminespib; first compound 0.003162 µM) | relative viability (Quizartinib + Luminespib; first compound 0.01 µM) | relative viability (Quizartinib + Luminespib; first compound 0.1 µM) | relative viability (Quizartinib + Pictilisib; first compound 0.001 µM) | relative viability (Quizartinib + Pictilisib; first compound 0.003162 µM) | relative viability (Quizartinib + Pictilisib; first compound 0.01 µM) | relative viability (Quizartinib + Pictilisib; first compound 0.03162 µM) | relative viability (Quizartinib + Pictilisib; first compound 0.1 µM) | relative viability (YM155 + OSI-027; first compound 0.002 µM) | relative viability (YM155 + OSI-027; first compound 0.006325 µM) | relative viability (YM155 + OSI-027; first compound 0.02 µM) | relative viability (YM155 + OSI-027; first compound 0.06325 µM) | relative viability (Quizartinib + Luminespib; first compound 0.03162 µM) | relative viability (YM155 + AZD7762; first compound 0.002 µM) | relative viability (YM155 + AZD7762; first compound 0.006325 µM) | relative viability (YM155 + AZD7762; first compound 0.02 µM) | relative viability (YM155 + AZD7762; first compound 0.06325 µM)
1 | SK-MES-1 | 0.736 | 0.789 | 0.541 | 0.646 | 0.244 | 0.329 | 0.391 | 0.363 | 0.365 | 0.582 | 0.712 | 0.628 | 0.19 | – | – | – | – | –
2 | NCI-H1975 | 0.166 | 0.273 | 0.164 | 0.202 | 0.288 | 0.282 | 0.283 | 0.284 | 0.281 | 0.596 | 0.742 | 0.67 | 0.541 | 0.212 | 0.726 | 0.734 | 0.701 | 0.439
3 | HCC-78 | – | – | – | – | 0.21 | 0.185 | 0.206 | 0.0784 | 0.216 | 0.361 | 0.379 | 0.385 | 0.383 | – | 0.612 | 0.779 | 0.755 | 0.629
4 | H3255 | 0.788 | 0.857 | 0.966 | 0.875 | 0.486 | 0.404 | 0.507 | 0.471 | 0.47 | 0.577 | 0.56 | 0.652 | 0.569 | 0.971 | 0.886 | 0.913 | 1.05 | 0.796
5 | NCI-H1299 | – | – | – | – | 0.835 | 0.735 | 0.797 | 0.726 | 0.881 | – | – | – | – | – | – | – | – | –
6 | NCI-H441 | 0.352 | 0.369 | 0.339 | 0.362 | 0.38 | 0.508 | 0.508 | 0.379 | 0.606 | 0.468 | 0.496 | 0.537 | 0.381 | – | 0.947 | 1.23 | 1.09 | 0.246
7 | NCI-H1755 | 0.473 | 0.243 | 0.555 | 0.39 | 0.39 | 0.439 | 0.416 | 0.401 | 0.436 | 0.716 | 0.753 | 0.747 | 0.705 | 0.459 | 0.478 | 0.445 | 0.427 | 0.493
8 | LCLC-97TM1 | 0.7 | 0.6 | 0.892 | 0.759 | – | 0.144 | 0.223 | 0.148 | 0.218 | 0.442 | 0.539 | 0.548 | 0.469 | 0.686 | 0.158 | 0.251 | 0.231 | 0.096
9 | NCI-H2085 | 0.403 | 0.391 | 0.454 | 0.393 | 0.5 | 0.504 | 0.479 | 0.595 | 0.523 | 0.742 | 0.783 | 0.809 | 0.421 | 0.419 | 0.928 | 0.975 | 0.979 | 0.801
10 | BEN | 0.421 | 0.33 | 0.307 | 0.214 | 0.499 | 0.613 | 0.55 | 0.496 | 0.543 | 0.268 | 0.311 | 0.304 | 0.29 | 0.384 | 0.538 | 0.625 | 0.769 | 0.692
